Source: publication PMC4207403, “Docking Studies and Biological Activity of Fosinopril Analogs” (International Journal of Medicinal Chemistry, 2014)

What was measured:
[1] = target: T1, angiotensin-I converting enzyme (ACE) (Rattus norvegicus, UniProt P47820); experiment: In vitro angiotensin-I converting enzyme inhibitory activity, spectrophotometric assay with rat lung extract; type: biochemical; conditions: for inhibition at 0.0002 µM: 0.2 nM; for inhibition at 0.0004 µM: 0.4 nM; for inhibition at 0.0006 µM: 0.6 nM; for inhibition at 0.0008 µM: 0.8 nM; for inhibition at 0.001 µM: 1 nM; for IC50: ACE inhibition, rat lung extract
T1 construct: The reaction was started by the addition of 40 μL rat lung extract; from tissue; host or cells: rat lung extract
T1 sequence (P47820 36-1313): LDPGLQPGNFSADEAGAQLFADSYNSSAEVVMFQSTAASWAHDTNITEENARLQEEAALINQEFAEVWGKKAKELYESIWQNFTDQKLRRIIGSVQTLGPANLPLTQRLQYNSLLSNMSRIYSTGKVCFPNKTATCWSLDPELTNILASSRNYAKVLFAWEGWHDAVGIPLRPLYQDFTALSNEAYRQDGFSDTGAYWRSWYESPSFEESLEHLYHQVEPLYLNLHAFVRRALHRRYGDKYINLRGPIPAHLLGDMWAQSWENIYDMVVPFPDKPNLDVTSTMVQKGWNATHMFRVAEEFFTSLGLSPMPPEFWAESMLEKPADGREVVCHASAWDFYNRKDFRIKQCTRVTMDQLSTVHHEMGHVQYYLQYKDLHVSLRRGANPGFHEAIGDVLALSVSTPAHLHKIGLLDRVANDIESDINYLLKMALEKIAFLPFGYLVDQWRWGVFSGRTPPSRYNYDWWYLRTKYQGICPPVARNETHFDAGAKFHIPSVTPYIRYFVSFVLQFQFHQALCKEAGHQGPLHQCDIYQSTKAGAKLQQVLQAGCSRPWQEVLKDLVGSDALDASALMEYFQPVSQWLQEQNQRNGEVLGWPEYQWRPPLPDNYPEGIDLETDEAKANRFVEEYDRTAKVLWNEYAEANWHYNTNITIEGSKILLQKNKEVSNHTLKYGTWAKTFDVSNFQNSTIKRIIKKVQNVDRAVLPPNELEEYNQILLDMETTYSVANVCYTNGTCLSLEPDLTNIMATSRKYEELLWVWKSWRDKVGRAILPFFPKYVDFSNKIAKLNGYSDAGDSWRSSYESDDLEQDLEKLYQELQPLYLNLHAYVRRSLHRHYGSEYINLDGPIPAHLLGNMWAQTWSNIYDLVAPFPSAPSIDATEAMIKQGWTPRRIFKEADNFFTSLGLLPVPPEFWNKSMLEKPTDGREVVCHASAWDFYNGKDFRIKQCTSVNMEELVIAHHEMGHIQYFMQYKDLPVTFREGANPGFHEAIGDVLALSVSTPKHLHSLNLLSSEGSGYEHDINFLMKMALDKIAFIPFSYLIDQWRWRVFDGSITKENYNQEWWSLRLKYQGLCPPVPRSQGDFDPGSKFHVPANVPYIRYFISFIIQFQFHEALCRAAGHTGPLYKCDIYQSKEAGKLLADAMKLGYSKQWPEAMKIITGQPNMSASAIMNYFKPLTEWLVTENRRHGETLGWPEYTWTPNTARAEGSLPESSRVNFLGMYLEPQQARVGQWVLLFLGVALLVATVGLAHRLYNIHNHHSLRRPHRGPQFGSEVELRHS
Experimental: This method is based on the cleavage of the substrate hippuryl-glycyl-glycine by ACE and subsequent reaction with trinitrobenzenesulfonic acid to form 2,4,6-trinitrophenyl-glycyl-glycine. The method relies on spectrophotometric determination of hippuric acid. It involves a colorimetric reaction of hippuric acid with benzene sulfonyl chloride.
The assay system consisted of 200 μL of substrate solution, water, and drug solution in a volume of 0.25 mL. The reaction was started by the addition of 40 μL rat lung extract. After 30 minutes of incubation at 37°C, the reaction was stopped by adding 2 mL of stop solution (1.195 g HEPES and 0.0465 g of EDTA were dissolved in 40 mL distilled water. The pH was adjusted to 9.0 with 1 mol/lit sodium hydroxide and diluted to 50 mL with distilled water). Then 0.5 mL distilled water and 1.0 mL colour reagent were added, mixed vigorously, left for 5 min, and centrifuged at 3000–4000 rpm for 10 minutes at room temperature to remove any precipitate. The corresponding enzyme inhibitors blanks were assayed in the same manner except for adding the stop solution before the lung extract. The absorbance of the yellow product of the reaction between liberated hippurate and cyanuric chloride was measured spectrophotometrically at 405 nm against distilled water as blank.Controls without drug were run simultaneously in all cases. “One inhibitory unit is the amount of inhibitor that suppressed the ACE activity by one unit.”

[2] = background statement; cited from earlier work
ACE = conditions: background statement; cited from earlier work
[3] = read-out: Percent inhibition of ACE

Row | inhibition at 10 pM ([1]; 0.01 nM, read-out: Percent inhibition of ACE) | inhibition at 20 pM ([1]; 0.02 nM, read-out: Percent inhibition of ACE) | inhibition at 0.0002 µM [1, 3] | inhibition at 0.0004 µM [1, 3] | inhibition at 0.0006 µM [1, 3] | inhibition at 0.0008 µM [1, 3] | inhibition at 0.001 µM [1, 3] | IC50 [1] | ACE inhibition activity, in words ([1]; compared with other analogs and Fosinopril) | inhibition at 0.0001 µM ([1]; 0.1 nM, read-out: Percent inhibition of ACE) | SMILES | Bioavailability [2] | Potency relative to other ACE inhibitors (ACE)
1 | 44.7 ± 3.85% | 53.2 ± 5.73% | 75.1 ± 4.66% | 77.8 ± 3.21% | 81.7 ± 6.09% | 84 ± 5.11% | 84.5 ± 4.52% | 17 ± 9 pM | highest ACE inhibition activity |  | O=C(O)C1Cc2ccccc2CN1C(=O)CP(=O)(O)CCCCc1ccccc1 (stereo not shown) [Analog A2] |  | 
2 |  |  | 63 ± 6.01% | 68.7 ± 3.99% | 73 ± 4.76% | 88.2 ± 5.2% | 89.1 ± 3.82% | 143 ± 12 pM |  | 44.1 ± 4.35% | CCC(=O)O[C@@H](O[P@](=O)(CCCCc1ccccc1)CC(=O)N1C[C@H](C2CCCCC2)C[C@H]1C(=O)O)C(C)C [Fosinopril] |  | 
3 |  |  |  |  |  |  |  |  |  |  | O=C(O)[C@@H]1C[C@@H](C2CCCCC2)CN1C(=O)CP(=O)(O)CCCCc1ccccc1 [Fosinoprilat] | poor bioavailability | more potent than captopril but less potent than enalaprilat
4 |  |  |  |  |  |  |  |  |  |  | C[C@H](N[C@@H](CCc1ccccc1)C(=O)O)C(=O)N1CCC[C@H]1C(=O)O [enalaprilat] | poor bioavailability | 
